Data set [1] concerns the target Recombinant human ACLY full length protein (Homo sapiens (Human), UniProt P53396). Kind of data set: hACLY ADP-Glo activity assay. The data set is classed as biochemical. The settings on record: 0.5 nM ACLY; 15 μM sodium citrate, 1 μM coenzyme A, 80 μM ATP; ADP formed, luminescence; read-out: ADP-Glo IC50 GMean. The procedure: Compounds of the disclosure were evaluated for their efficacy in inhibiting hACLY using an ADP-Glo™ assays that measure ADP formed from the enzymatic activity of hACLY.
Test compounds were 3-fold serially diluted in DMSO over 11-point concentration range and dispensed onto a 384-well plate. Recombinant human ACLY full length protein was purified. Concentrations of ACLY protein, sodium citrate, coenzyme A, and ATP in the reaction were optimized for standardized homogenous enzyme assay using ADP-Glo™ Kinase (Promega Inc.). The assay measured ADP formed from the enzymatic reaction.
The reaction buffer consisted of the assay buffer (50 mM HEPES pH 8.0, 10 mM MgCl2, 4 mM 1,4-Dithiothreitol, 0.01% Brij® 35).
ACLY protein (0.5 nM) was added to the prepared reaction buffer, and the mixture was dispensed into the assay plate and incubated for 30 minutes at room temperature. Next, 15 μM sodium citrate, 1 μM coenzyme A, and 80 μM ATP were added into the assay plate and incubated for 60 minutes at room temperature. The final reaction volume for each well was 5 μL.
5 μL of ADP-Glo™ reagent was added, and the mixture was incubated for 40 minutes at room temperature. 10 μl ADP-Glo™ detection reagent was added, and the mixture was incubated for 30 minutes at room temperature. Luminescence was determined using EnVision microplate reader with ultra-luminescence module (Perkin Elmer Inc). Concentration-response curve-fitting and IC50 determination was performed using Xlfit Software (version 5.5.0) with a four-parameter logistic regression fit model.

Data set [2] addresses T1, ACLY (Homo sapiens (Human), UniProt P53396). Kind of data set: Human ACLY (hACLY) RF/MS activity assay. The settings on record: 1 nM hACLY; 30 min pre-incubation; 15 μM Coenzyme A, 50 μM ATP, 50 μM citrate; CoA to Acetyl-CoA by RF/MS; read-out: RFMS IC50 GMean. The data set is classed as biochemical. The method in brief:
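RapidFire MS read CoA-to-acetyl-CoA conversion as a substrate/product ratio after 30 min at RT (20° C) with final 15 μM CoA, 50 μM ATP, 50 μM citrate. Before substrate addition, 1 nM enzyme sat 30 min with compound (top 10 μM, two-fold dilutions; 1% DMSO) in pH 8.0 Hepes/MgCl2/NaCl/DTT buffer.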

The target in data set [3] is T1, ACLY. The experiment in a line: InCell Pulse assay (permeate HEK293 cells, bind to and stabilize ACLY). The format is cell-based. The conditions noted are these: HEK293 cells transfected with pICP-ACLY(FL)-ePL; 1 hour at 37° C., 55° C. heat pulse 10 minutes; read-out: InCell Pulse IC50 GMean. The gist of the method:
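HEK293 cells transiently expressing full-length ACLY-ePL were exposed in OptiMEM to 11-point, 3-fold compound dilutions for 1 h at 37 °C, heat-pulsed 10 min at 55 °C, then lysed for enzyme-fragment complementation luminescence. Four-parameter fit, normalised to 0.5% DMSO and 1 μM NDI-094311.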

The text below walks through data of patent US20250289793A1, “MACROCYCLIC INHIBITORS OF ATP CITRATE LYASE” (Esperion Therapeutics, Inc., priority 2022, published 2025).

Like-named read-outs stand apart in the source and are kept apart here. Where only a bound is given, the exact number is not on record here.

T1 sequence (P53396 whole entry): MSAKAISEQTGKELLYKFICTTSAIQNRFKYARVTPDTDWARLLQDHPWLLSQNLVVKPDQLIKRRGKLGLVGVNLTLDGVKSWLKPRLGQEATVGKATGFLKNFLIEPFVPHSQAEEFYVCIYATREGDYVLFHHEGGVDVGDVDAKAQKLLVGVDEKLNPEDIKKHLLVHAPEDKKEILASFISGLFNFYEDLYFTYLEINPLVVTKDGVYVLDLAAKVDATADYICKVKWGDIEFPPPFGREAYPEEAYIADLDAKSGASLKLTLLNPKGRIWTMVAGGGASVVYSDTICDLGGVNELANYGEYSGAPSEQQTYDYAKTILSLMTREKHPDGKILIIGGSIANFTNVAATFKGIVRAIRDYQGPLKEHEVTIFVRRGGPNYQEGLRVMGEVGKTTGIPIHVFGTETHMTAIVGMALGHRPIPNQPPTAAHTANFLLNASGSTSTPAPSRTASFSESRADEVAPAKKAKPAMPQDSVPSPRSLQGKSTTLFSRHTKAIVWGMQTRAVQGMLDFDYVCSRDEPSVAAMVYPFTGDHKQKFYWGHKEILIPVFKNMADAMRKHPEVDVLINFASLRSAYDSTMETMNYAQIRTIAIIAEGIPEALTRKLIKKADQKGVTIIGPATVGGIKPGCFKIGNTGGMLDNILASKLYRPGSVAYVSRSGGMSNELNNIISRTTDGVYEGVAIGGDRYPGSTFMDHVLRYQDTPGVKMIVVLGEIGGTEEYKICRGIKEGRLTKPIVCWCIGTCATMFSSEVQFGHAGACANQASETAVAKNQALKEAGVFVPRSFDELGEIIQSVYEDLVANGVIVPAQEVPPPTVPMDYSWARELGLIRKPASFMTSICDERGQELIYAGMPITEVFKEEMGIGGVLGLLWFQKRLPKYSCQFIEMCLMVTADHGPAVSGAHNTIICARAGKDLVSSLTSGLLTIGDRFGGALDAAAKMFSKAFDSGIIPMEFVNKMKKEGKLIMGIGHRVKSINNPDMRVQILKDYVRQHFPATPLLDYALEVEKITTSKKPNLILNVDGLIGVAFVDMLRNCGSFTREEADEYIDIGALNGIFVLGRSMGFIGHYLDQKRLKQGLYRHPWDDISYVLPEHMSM
Recombinant human ACLY full length protein, sequence (P53396 whole entry): as above

As to `COc1c(Cl)cc2cc1S(=O)(=O)Nc1cc(c(F)cc1F)-c1cccc3c1OC(COC2=O)C3` (stereo not shown), where the note is “from COc1c(Cl)cc(C(=O)O)cc1S(=O)(=O)Nc1cc(-c2cccc3c2OC(CO)C3)c(F)cc1F, ester bond, 15-membered ring, DCC/DMAP, DCM, 29.5 mM, 25.0 °C, 2.0 h”, the ring closure, isolated yield was 70%.

In the case of `COc1c(Cl)cc2cc1S(=O)(=O)Nc1cc(c(F)cc1F)-c1ccccc1COC(=O)C2`, where the note is “from COc1c(Cl)cc(CC(=O)O)cc1S(=O)(=O)Nc1cc(-c2ccccc2CO)c(F)cc1F, ester bond, 14-membered ring, DCC/DMAP, DCM, 12.7 mM, 3.0 h”, the ring closure, isolated yield is 19%.

Under “from 3-[6-[2-(2-aminoethoxy)phenyl]-5-fluoro-indoline-1-carbonyl]-4-methoxybenzoic acid·HCl, amide bond, 15-membered ring, T3P/DIPEA, DMF, 11.6 mM”, `COc1ccc2cc1C(=O)N1CCc3cc(F)c(cc31)-c1ccccc1OCCNC2=O` displayed a ring closure, isolated yield of 24%.

`C[C@@H]1COc2ccccc2-c2cc(c(F)cc2F)NS(=O)(=O)c2cc(cc(Cl)c2O)C(=O)N1` [Compound 19, (10R)-15-chloro-21,23-difluoro-16-hydroxy-10-methyl-8-oxa-18lambda6-thia-11,19-diazatetracyclo[18.3.1.1^13,17.0^2,7]pentacosa-1(24),2,4,6,13,15,17(25),20,22-nonaene-12,18,18-trione]: the values for the IC50 (in data set [1]; on ACLY [2]; on ACLY [3]) were 10 to 1000 nM, 100 to 10000 nM and at least 50000 nM, respectively.

In the case of `COc1c(Cl)cc2cc1S(=O)(=O)Nc1cc(c(F)cc1F)Oc1cccc(c1)COC2=O`, the ring closure, isolated yield (from COc1c(Cl)cc(C(=O)O)cc1S(=O)(=O)Nc1cc(Oc2cccc(CO)c2)c(F)cc1F, ester bond, 15-membered ring, DCC/DMAP, DCM, 19.8 mM, 3.0 h) was 72%.

`COc1c(Cl)cc2cc1S(=O)(=O)Nc1cc(c(F)cc1F)-c1ccccc1COC2=O` displayed a ring closure, isolated yield (from COc1c(Cl)cc(C(=O)O)cc1S(=O)(=O)Nc1cc(-c2ccccc2CO)c(F)cc1F, ester bond, 13-membered ring, DCC/DMAP, DCM, 21.8 mM, 26.5 h) of 43%.

Regarding `COc1c(Cl)cc2cc1S(=O)(=O)Nc1cc(ccc1F)N1CCC[C@@H]1CCOC2=O`, where the note is “from 3-chloro-5-[[2-fluoro-5-[(2R)-2-(2-hydroxyethyl)221pyrrolidine-1-yl]phenyl]sulfamoyl]-4-methoxybenzoic acid, ester bond, 14-membered ring, DCC/DMAP, DCM, 26.0 mM”, the ring closure, isolated yield came to 77%.

The compound `COc1c(Cl)cc2cc1S(=O)(=O)Nc1cc(c(F)cc1F)-c1ccccc1C(C)CCOC2=O` (stereo not shown) showed a ring closure, isolated yield (from COc1c(Cl)cc(C(=O)O)cc1S(=O)(=O)Nc1cc(-c2ccccc2C(C)CCO)c(F)cc1F, ester bond, 15-membered ring, DCC/DMAP, DCM, 19.8 mM, 25.0 °C, 2.0 h) of 72%.

Under “from COc1c(Cl)cc(C(=O)O)cc1S(=O)(=O)Nc1cc(-c2ccccc2OCCO)ccc1C(F)(F)F, ester bond, 15-membered ring, DCC/DMAP, DCM, 16.8 mM, 25.0 °C, 1.0 h”, `COc1c(Cl)cc2cc1S(=O)(=O)Nc1cc(ccc1C(F)(F)F)-c1ccccc1OCCOC2=O` gave a ring closure, isolated yield of 42%.

The compound `O=C1OCCOc2ccccc2-c2cc(c(F)cc2F)NS(=O)(=O)c2cc1cc(Cl)c2C(F)F` gave a ring closure, isolated yield (from O=C(O)c1cc(Cl)c(C(F)F)c(S(=O)(=O)Nc2cc(-c3ccccc3OCCO)c(F)cc2F)c1, ester bond, 15-membered ring, DCC/DMAP, DCM, 33.0 mM, 25.0 °C, 1.5 h) of 53%.

In the case of `O=C1OCCCOc2ccccc2-c2cc(c(F)cc2F)NS(=O)(=O)c2cc1cc(Cl)c2O` [Compound 20, 16-chloro-22,24-difluoro-17-hydroxy-8,12-dioxa-19lambda6-thia-20-azatetracyclo[19.3.1.1^14,18.0^2,7]hexacosa-1(25),2,4,6,14,16,18(26),21,23-nonaene-13,19,19-trione], the IC50 in data set [1] was under 1 nM; at ACLY [2], under 20 nM; at ACLY [3], 300 to 1000 nM.

Consider `O=C1NCCCOc2cccc(c2)-c2cc(c(F)cc2F)NS(=O)(=O)c2cc1cc(Cl)c2O` [Compound 5, 11-chloro-3,5-difluoro-10-hydroxy-19-oxa-8lambda6-thia-7,15-diazatetracyclo[18.3.1.1^2,6.1^9,13]hexacosa-1(23),2(26),3,5,9(25),10,12,20(24),21-nonaene-8,8,14-trione], for which the IC50 in data set [1] is 10 to 1000 nM; on ACLY [2], 100 to 10000 nM; on ACLY [3] it was at least 50000 nM.

Consider `O=S1(=O)Nc2cc(c(F)cc2F)-c2ccccc2OCCn2cnnc2-c2cc(Cl)c(O)c1c2` [Compound 77, 25-chloro-17,19-difluoro-22,22-dioxo-9-oxa-2λ6-thia-3,4,6,21-tetrazapentacyclo[21.3.1.116,20.02,6.010,15]octacosa-1(26),2,4,10,12,14,16(28),17,19,23(27),24-undecaen-24-ol], for which the IC50 on ACLY [2] is under 20 nM; on ACLY [3], 1000 to 50000 nM.

With `O=C1OCCCc2c(sc3ccccc23)-c2cc(c(F)cc2F)NS(=O)(=O)c2cc1cc(Cl)c2O` [Compound 22, 18-chloro-24,26-difluoro-19-hydroxy-14-oxa-3,21lambda6-dithia-22-azapentacyclo[21.3.1.1^16,20.0^2,10.0^4,9]octacosa-1(27),2(10),4,6,8,16,18,20(28),23,25-decaene-15,21,21-trione], the IC50 is 20 to 100 nM on ACLY [2] and at least 50000 nM at ACLY [3].

In the case of `O=C1NCCOc2cccc(c2)-c2cc(c(F)cc2F)NS(=O)(=O)c2cc1cc(Cl)c2O` [Compound 3, 11-chloro-3,5-difluoro-10-hydroxy-18-oxa-8lambda6-thia-7,15-diazatetracyclo[17.3.1.1^2,6.1^9,13]pentacosa-1(22),2(25),3,5,9(24),10,12,19(23),20-nonaene-8,8,14-trione], the values for the IC50 (in data set [1]; at ACLY [2]; on ACLY [3]) were 10 to 1000 nM, 100 to 10000 nM and at least 50000 nM, respectively.

Consider `O=C1OCCOc2ccc(F)cc2-c2cc(F)c(F)c(c2)NS(=O)(=O)c2cc1cc(Cl)c2O` [Compound 79, 15-chloro-4,21,22-trifluoro-16-hydroxy-18,18-dioxo-8,11-dioxa-18λ6-thia-19-azatetracyclo[18.3.1.113,17.02,7]pentacosa-1(23),2(7),3,5,13,15,17(25),20(24),21-nonaen-12-one], for which the 50% inhibitory concentration (IC50) at ACLY [2] was under 20 nM; on ACLY [3], under 300 nM.

With `O=C1OCc2cccc(c2)Oc2cc(c(F)cc2F)NS(=O)(=O)c2cc1cc(Cl)c2O` [Compound 34, 12-chloro-4,6-difluoro-11-hydroxy-9,9-dioxo-2,16-dioxa-9λ6-thia-8-azatetracyclo[16.3.1.13,7.110,14]tetracosa-1(22),3,5,7(24),10(23),11,13,18,20-nonaen-15-one], the results for the IC50 on ACLY [2] and on ACLY [3] were 100 to 10000 nM and at least 50000 nM, respectively.

Regarding `O=C1OCCOc2ccccc2-c2cc(c(F)cc2F)NS(=O)(=O)c2cc1ccc2C(F)F` [Compound 60, 16-(difluoromethyl)-21,23-difluoro-18,18-dioxo-8,11-dioxa-18λ6-thia-19-azatetracyclo[18.3.1.113,17.02,7]pentacosa-1(23),2(7),3,5,13(25),14,16,20(24),21-nonaen-12-one], the values for the IC50 at ACLY [2] and at ACLY [3] were at least 10000 nM and at least 50000 nM, respectively.

Consider `O=C1OCC[C@H]2CCCN2c2ccc(F)c(c2)NS(=O)(=O)c2cc1cc(Cl)c2O` [Compound 70, (6R)-13-chloro-19-fluoro-14-hydroxy-16,16-dioxo-9-oxa-16%6-thia-2,17-diazatetracyclo[16.3.1.111,15.02,6]tricosa-1(21),11(23),12,14,18(22),19-hexaen-10-one], for which the IC50 on ACLY [2] is 20 to 100 nM; at ACLY [3] it was at least 50000 nM.

Turning to `CC1CCOC(=O)c2cc(Cl)c(O)c(c2)S(=O)(=O)Nc2cc(c(F)cc2F)-c2ccccc21` (single isomer, unassigned) [Compound 45, 15-chloro-21,23-difluoro-16-hydroxy-8-methyl-18,18-dioxo-11-oxa-18λ6-thia-19-azatetracyclo[18.3.1.113,17.02,7]pentacosa-1(23),2(7),3,5,13,15,17(25),20(24),21-nonaen-12-one], the figures for the IC50 at ACLY [2] and on ACLY [3] were 20 to 100 nM and under 300 nM, respectively.

In the case of `O=S1(=O)Nc2cc(ccc2F)-c2ccccc2CCOCc2cc(Cl)c(O)c1c2` [Compound 69, 14-chloro-20-fluoro-17,17-dioxo-10-oxa-17λ6-thia-18-azatetracyclo[17.3.1.112,16.02,7]tetracosa-1(23),2,4,6,12,14,16(24),19,21-nonaen-15-ol], the IC50 on ACLY [2] is 100 to 10000 nM; at ACLY [3], under 300 nM.
